According to the supplement of paper PMC10307832:

Experiments:
Assay in all cases: relative viability (nuclei count vs DMSO), 5 days (fraction); higher = more cells survive
AGI-6780 + Bortezomib = compound: O=C(Nc1cccc(C(F)(F)F)c1)Nc1cc(S(=O)(=O)NC2CC2)ccc1-c1ccsc1 [AGI-6780] + CC(C)C[C@H](NC(=O)[C@H](Cc1ccccc1)NC(=O)c1cnccn1)B(O)O [Bortezomib] (partner 0.002 µM)
Outline: (§1)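 Lung cancer cell lines were pin-tool dosed in 1536-well plates on the day after seeding, with either a lone drug or a fixed anchor-drug dose plus five library-drug doses (not always all listed) in √10 steps. Nuclei were counted on 4× images after 5 days. Relative viability is the ratio of treated-well to vehicle-well nuclei counts, with each value a median of duplicate plates.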

AGI-6780 + Alpelisib = compound: O=C(Nc1cccc(C(F)(F)F)c1)Nc1cc(S(=O)(=O)NC2CC2)ccc1-c1ccsc1 [AGI-6780] + Cc1nc(NC(=O)N2CCC[C@H]2C(N)=O)sc1-c1ccnc(C(C)(C)C(F)(F)F)c1 [Alpelisib] (partner 2 µM)
Outline: as §1

AGI-6780 + Dasatinib = compound: O=C(Nc1cccc(C(F)(F)F)c1)Nc1cc(S(=O)(=O)NC2CC2)ccc1-c1ccsc1 [AGI-6780] + Cc1nc(Nc2ncc(C(=O)Nc3c(C)cccc3Cl)s2)cc(N2CCN(CCO)CC2)n1 [Dasatinib] (partner 0.075 µM)
Outline: as §1

AGI-6780 + Palbociclib = compound: O=C(Nc1cccc(C(F)(F)F)c1)Nc1cc(S(=O)(=O)NC2CC2)ccc1-c1ccsc1 [AGI-6780] + CC(=O)c1c(C)c2cnc(Nc3ccc(N4CCNCC4)cn3)nc2n(C2CCCC2)c1=O [Palbociclib] (partner 0.5 µM)
Outline: as §1

Row | Cell Line | relative viability (AGI-6780 + Bortezomib; first compound 0.08 µM) | relative viability (AGI-6780 + Bortezomib; first compound 0.253 µM) | relative viability (AGI-6780 + Bortezomib; first compound 0.8 µM) | relative viability (AGI-6780 + Bortezomib; first compound 2.53 µM) | relative viability (AGI-6780 + Bortezomib; first compound 8 µM) | relative viability (AGI-6780 + Alpelisib; first compound 0.08 µM) | relative viability (AGI-6780 + Alpelisib; first compound 0.253 µM) | relative viability (AGI-6780 + Alpelisib; first compound 0.8 µM) | relative viability (AGI-6780 + Alpelisib; first compound 2.53 µM) | relative viability (AGI-6780 + Alpelisib; first compound 8 µM) | relative viability (AGI-6780 + Dasatinib; first compound 0.08 µM) | relative viability (AGI-6780 + Dasatinib; first compound 0.253 µM) | relative viability (AGI-6780 + Dasatinib; first compound 0.8 µM) | relative viability (AGI-6780 + Dasatinib; first compound 2.53 µM) | relative viability (AGI-6780 + Dasatinib; first compound 8 µM) | relative viability (AGI-6780 + Palbociclib; first compound 0.08 µM) | relative viability (AGI-6780 + Palbociclib; first compound 0.253 µM) | relative viability (AGI-6780 + Palbociclib; first compound 0.8 µM) | relative viability (AGI-6780 + Palbociclib; first compound 2.53 µM) | relative viability (AGI-6780 + Palbociclib; first compound 8 µM)
1 | NCI-H460 | 1.18 | 1.09 | 1.21 | 1.08 | 1.05 | 0.536 | 0.458 | 0.514 | 0.327 | 0.568 | 0.495 | 0.583 | 0.468 | 0.444 | 0.541 | 0.145 | 0.211 | 0.144 | 0.136 | 0.15
2 | NCI-H1793 |  |  |  |  |  | 0.744 | 0.831 | 0.943 | 0.562 | 0.675 | 0.399 | 0.389 | 0.455 | 0.263 | 0.41 | 0.347 | 0.328 | 0.342 | 0.262 | 0.287
3 | NCI-H2347 | 0.557 | 0.947 | 0.858 | 1.23 | 1.19 | 1 | 0.954 | 0.691 | 1 | 1.13 | 0.323 | 0.342 | 0.276 | 0.307 | 0.317 | 0.451 | 0.469 | 0.413 | 0.385 | 0.481
4 | HCC-15 | 1.1 | 0.993 | 1.06 | 1.04 | 1.02 | 0.883 | 0.91 | 0.939 | 0.712 | 0.919 | 0.732 | 0.636 | 0.736 | 0.437 | 0.621 | 0.787 | 0.649 | 0.689 | 0.718 | 0.728
5 | NCI-H1915 | 1.02 | 1 | 0.912 | 0.955 | 0.972 | 1.02 | 0.963 | 1.04 | 0.992 | 1.04 | 0.358 | 0.333 | 0.344 | 0.249 | 0.304 | 0.525 | 0.506 | 0.518 | 0.46 | 0.524
6 | NCI-H1734 | 1.08 | 0.968 | 1.03 |  | 0.935 | 0.752 | 0.705 | 0.671 |  | 0.733 | 0.459 | 0.461 | 0.473 | 0.347 | 0.435 | 0.371 | 0.379 | 0.297 | 0.285 | 0.352
7 | NCI-H2342 |  |  |  |  |  |  |  |  |  |  | 0.3 | 0.369 | 0.34 | 0.302 | 0.317 | 0.506 | 0.504 | 0.509 | 0.478 | 0.548
8 | COR-L 105 | 0.886 | 0.896 | 0.993 | 0.766 | 0.813 | 1.19 | 1.02 | 0.986 | 0.863 | 1.04 | 0.345 | 0.349 | 0.397 | 0.369 | 0.378 | 0.395 | 0.301 | 0.417 | 0.371 | 0.37
9 | PC-14 | 0.899 | 0.71 | 0.917 | 0.793 | 0.934 | 0.947 | 0.986 | 0.944 | 0.913 | 0.961 | 0.233 | 0.256 | 0.308 | 0.276 | 0.24 | 0.533 | 0.538 | 0.568 | 0.553 | 0.546
